From the NIST ThermoML archive (doi:10.1016/j.jct.2018.03.001)
Numbers after ± are expanded uncertainties.

Assay: molar enthalpy of vaporization or sublimation
Details: 298.15 K; Liquid; Static calorimetry

SMILES: NCCN1CCOCC1 [4-morpholineethanamine]
- molar enthalpy: 64 ± 3.9 kJ/mol

SMILES: NCCCN1CCOCC1 [N-(3-aminopropyl)morpholine]
- molar enthalpy: 61.8 ± 3.6 kJ/mol
